In the data set the test system is human HaCaT cells. As to the kind of experiment: Cytotoxicity assay (MTT colorimetric assay). The format is cell-based. The conditions noted are these: 0.3-100 μM, 48 hours of treatment. The procedure: HaCaT cells were inoculated at a density of 5.0×10^3 cells/mL in a 96-well culture plate, with 100 μL per well. […] After 48 hours of treatment, 10 μL of MTT solution was added to each well, and the cells were incubated at 37° C. for an additional 4 hours. The culture was then terminated, the supernatant was discarded, and 150 μL of DMSO was added to each well. The plate was shaken for 10 minutes for full dissolution. The absorbance (OD) of each well was measured at 490 nm using an ELISA reader. The wells without drug treatment served as controls, and cell viability was calculated using the formula: Cell viability
On the technique in general: Tetrazolium dyes change colour on reduction, which living cells bring about.

On to `Oc1ccc(C=Cc2cc(O)cc(O)c2)cc1` [resveratrol], for which the “cytotoxicity (cell viability)” value was “neither compound RE-1 nor resveratrol exhibited significant cytotoxicity”.
